Measured values published in US20250114451A1, “REDUCING POLYSORBATE DEGRADATION IN PROTEIN FO[…] LOW AMOUNTS OF CITRIC ACID” (LONZA LTD, priority 2022, published 2025).

Conditions: 0.1 mM, 1 mM, 10 mM, 20 mM citric acid vs 0 mM; Rituximab Protein A eluate 1.4 mg/mL, 0.02% (w/v) PS80, pH 6; 2 weeks and 4 weeks at 40° C.
Experimental: A formulation buffer containing 25 mM L-His/L-His HCl at pH 6.0, 600 mM sucrose and 0.05% (w/v) PS80 was prepared. The solution was filtered over a 0.22 μm PVDF Durapore® sterile filter.
A second solution of 40 mM citric acid at pH 6.0 was prepared and filtered over a 0.22 μm PVDF Durapore® sterile filter. In addition to the 40 mM citric acid stock solution, dilutions of the 40 mM citric acid solution at a target concentration of 20 mM, 2 mM and 0.2 mM using water were prepared.
Five protein formulation samples were prepared each by spiking 320 μL of the downstream purification sample (Rituximab Protein A eluate, 18 g/L) into 1680 μL of the above prepared formulation buffer in five different particle-free Nalgene bottles. […]
Analyzing polysorbate degradation in protein formulation samples 1.2 mL of each of the protein formulation sample were aliquoted into particle-free Nalgene tubes and placed into a 40° C. stability chamber. The samples were analysed after 2 week and 4 weeks of incubation using HPLC-FMA against a standard curve of intact PS80 in water.
The HPLC-FMA measurement was performed using a high-performance liquid chromatography (HPLC) system (Waters Alliance e2695) equipped with an isocratic pump, fluorescence detector (Waters 2475 FLR Detector), auto sampler and knitted reaction coil 1 mL (Supelco #57410-U). […] Fluorescence was measured at λex=350 nm and λem=420 nm. […]

In the case of O=C(O)CC(O)(CC(=O)O)C(=O)O [citric acid, Citric acid monohydrate], the “PS80 concentration / polysorbate degradation in protein formulation” value is reported as “effective in reducing polysorbate degradation”.
